Source: US7776572B2, “Method for reducing loss of enzyme activity during storage” (Corning Incorporated, priority 1996, dated 2010)

Legend:
MDCK cells = test: MDCK cell attachment to coated polystyrene 24-well plates; type: cell-based; details: coated PS 24-well, gamma sterilized, media with 5% FBS, two days, visual
Method: (§1) The procedures used were as follows. Polystyrene 24-well plates were coated with the non-ionic surfactants listed in Table 5 in accordance with the procedures described in Materials and Methods. Uncoated plates were used as a control. For comparison, plates with a covalently attached acrylamide coating (Corning Costar Catalog #2500) and with a stearic acid coating were also tested. The stearic acid coating was applied in the same manner as the non-ionic surfactants again using a 0.1% (w/v) solution.
(§2) The plates were gamma sterilized at 1.5 Mrad and then inoculated with 5.6×10^4 MDCK […] per well in 1 ml of complete media containing 5% FBS (Fetal Bovine Serum). Incubation was carried out at 37° C. in a 5% CO2 atmosphere for two days. The plates were fixed and stained, and cell attachment was noted. Following this, the wells were stained using the colloidal gold technique to detect bound protein. Only visual observations were made.
Experiments were also performed with cells suspended in serum. The cells used in these experiments were MDCK cells. The surfactants used were the same as used in Table 5. Again, reduced binding of the cells to surfaces treated with a non-ionic surfactant was observed.

bound protein = test: Colloidal gold staining of bound protein after MDCK culture in media containing 5% FBS, visual; details: colloidal gold after cell culture, visual observation
Method: as §1, §2

BSA = test: Polymer blends molded into petri dishes, BSA binding by colloidal gold; details: blended at 5% into polypropylene; silver enhancer
Fetal Bovine Serum (FBS) = test: Polymer blends molded into petri dishes, FBS protein binding by colloidal gold; details: blended at 5% into polypropylene; silver enhancer
IgG = test: Coating durability using water washes, IgG binding by colloidal gold
Method: Polystyrene plates having 24 wells (Corning Costar #9447) were coated with these surfactants as described in Materials and Methods. Durability was tested by adding dI H2O to the wells of a test plate (3.0 mls/well), following which the plate was placed on a rocker table. […] The protein solution was incubated with the plate on a rocker table for 30 minutes at 23° C., following which the plate was H2O rinse 3× (3 mls each time). The colloidal gold staining procedure described above was used to reveal bound protein. The staining comprised an overnight incubation on a rocker table at 23° C., a dI H2O rinse, drying at room temperature, and reading at 550 nm.

IgG (horse) = test: IgG binding to 24-well plates, surfactant dried or not dried before H2O rinse, colloidal Au; details: 0.5% surfactant in H2O/isopropanol (90/10)
Method: Duplicate 24-well plates were prepared as follows. Individual wells were filled with 3 ml of non-ionic surfactants at 0.5% (weight/volume) in H2O/isopropanol (90/10 weight/volume).
The duplicate plates were incubated for 30 minutes at room temperature on a rocker table and then emptied. One plate was tapped out and then allowed to dry at room temperature in a hood. It was then rinsed 5× with dI H2O. The second plate was not allowed to dry, but instead was immediately rinsed 5× with H2O. The plates were then tested for protein binding by filling each well with 0.5 ml of IgG (horse) at 10 μg/ml in PBS buffer and incubating for 30 minutes on a rocker table at room temperature. The plates were then rinsed with dI H2O and stained overnight with colloidal Au.

[1] = system: GAM-IgG-HRP (goat-anti-mouse-IgG-horseradish peroxidase enzyme labeled antibody); test: Bound enzyme labeled antibody on strips exposed to aqueous surfactant, rinsed or not rinsed, ABTS readout; details: 0.1% surfactant in H2O/isopropanol (95/5), not dried
Method: Medium binding (catalog #2587) and high binding (catalog #2581) polystyrene 96-well plates (8-well strips) manufactured by Corning Costar were used as follows. […] Strips were incubated for 30 minutes at room temperature on a rocker table. Strips were then emptied and tapped out. […] Immediately following this procedure, each well was aliquoted 0.10 ml of GAM-IgG-HRP (goat-anti-mouse-IgG-horseradish peroxidase enzyme labeled antibody; Kirkegaard and Perry, Gaithersburg, Md., Catalog #074-1806) at 1.0 μg/ml in PBS buffer pH=7.4). Strips were incubated for one hour at room temperature on a rocker table. Strips were then rinsed 5× with PBS buffer containing 0.02% Tween-20 followed by post rinsing with H2O. […] Absorbance at 405 nm was measured on a Cambridge Technologies #7520 Plate Reader.

IgG protein = test: In-mold coating of 24-well polystyrene plates, protein binding by colloidal gold staining; details: 1% isopropanol solution
Method: The in-mold coating aspects of the invention were tested by molding 24-well polystyrene plates. […] The 0.01% concentration was estimated to produce less than one monolayer of surfactant on the finished product, while the 0.1% concentration produced about 7 monolayers. The surfactant was applied to the mold using a Crown sprayer (Crown Industrial Products, Hebron, Ill.; Catalog #8011), which produces a sufficiently fine spray of droplets to uniformly coat the mold. The mold was sprayed before each part was made.

Molecule	MDCK Attachment (MDCK cells)	Visual Color Upon Protein Staining (bound protein)	Bound Protein Absorbance (550 nm) BSA (BSA)	Bound Protein Absorbance (550 nm) FBS (Fetal Bovine Serum (FBS))	Absorbance (550 nm) Initial (IgG; coated polystyrene, no water wash)	Absorbance (550 nm) 1 Time 1 hr 23° C. (IgG; dI H2O wash 1 time, 1 hr, 23° C.)	Absorbance (550 nm) 1 Time 24 hr 23° C. (IgG; dI H2O wash 1 time, 24 hr, 23° C.)	Absorbance (550 nm) 1 Time 24 hr 37° C. (IgG; dI H2O wash 1 time, 24 hr, 37° C.)	Absorbance (550 nm) 1 Time 24 hr 70° C. (IgG; dI H2O wash 1 time, 24 hr, 70° C.)	Absorbance (550 nm) 6 Times 30 min each 23° C. (IgG; dI H2O wash 6 times, 30 min each, 23° C.)	Absorbance (550 nm) Dried before H2O rinse (IgG (horse); dried, then rinsed 5x)	Absorbance (550 nm) H2O rinsed before drying (IgG (horse); not dried, rinsed 5x immediately)	Absorbance (405 nm) High Binding Polystyrene No Rinse ([1]; not rinsed)	Absorbance (405 nm) Medium Binding Polystyrene No Rinse ([1]; not rinsed)	Absorbance (405 nm) High Binding Polystyrene Rinsed ([1]; rinsed 5x with dI H2O)	Absorbance (405 nm) Medium Binding Polystyrene Rinsed ([1]; rinsed 5x with dI H2O)	protein binding of in-mold coated part (IgG protein)
PEO(20) SORBITOL MONO-LAURATE	None	None	0.153	0.270	0.00	0.02	0.05	0.10	0.10	0.10	0.14-0.16	0.13-0.16	0.00	0.00	2.00	1.90	
CCCCCCCCCCCCCCCCCC(=O)OCC(O)CO (centres unmarked) [GLYCEROL MONO-STEARATE]																	low protein binding
